Assay results: PMC7838058 (Acta Pharmaceutica Sinica. B, 2020)

How the values were obtained:
SD rats = details: 100 mg/kg by gavage every 8 h for 7 days, means ± SEM, n = 8
in vitro = details: human, Caco-2

SMILES | Serum Cl (SD rats) [mmol/L] | Papp A→B at 120 min, 2 μmol/L (in vitro) [×10⁻⁶ cm/s]
CC(=O)Nc1ccc(NC(=O)c2ccc([N+](=O)[O-])o2)cc1 [1H, N-(4-Acetamidophenyl)-5-nitrofuran-2-carboxamide] | 101.7 ± 1.3 | 
COCCc1ccc(OCC(O)CNC(C)C)cc1 (centres unmarked) [metoprolol] |  | 13.1 ± 0.65
